Test results as given in patent US20250171462A1 (NICO Therapeutics, Inc., priority 2022, published 2025).
Where two headings read alike, the source gives them in different places.

Target: T1, full-length SARM1 (FL-SARM1) (Homo sapiens, UniProt Q6SZW1)
T1 sequence (Q6SZW1 28-724): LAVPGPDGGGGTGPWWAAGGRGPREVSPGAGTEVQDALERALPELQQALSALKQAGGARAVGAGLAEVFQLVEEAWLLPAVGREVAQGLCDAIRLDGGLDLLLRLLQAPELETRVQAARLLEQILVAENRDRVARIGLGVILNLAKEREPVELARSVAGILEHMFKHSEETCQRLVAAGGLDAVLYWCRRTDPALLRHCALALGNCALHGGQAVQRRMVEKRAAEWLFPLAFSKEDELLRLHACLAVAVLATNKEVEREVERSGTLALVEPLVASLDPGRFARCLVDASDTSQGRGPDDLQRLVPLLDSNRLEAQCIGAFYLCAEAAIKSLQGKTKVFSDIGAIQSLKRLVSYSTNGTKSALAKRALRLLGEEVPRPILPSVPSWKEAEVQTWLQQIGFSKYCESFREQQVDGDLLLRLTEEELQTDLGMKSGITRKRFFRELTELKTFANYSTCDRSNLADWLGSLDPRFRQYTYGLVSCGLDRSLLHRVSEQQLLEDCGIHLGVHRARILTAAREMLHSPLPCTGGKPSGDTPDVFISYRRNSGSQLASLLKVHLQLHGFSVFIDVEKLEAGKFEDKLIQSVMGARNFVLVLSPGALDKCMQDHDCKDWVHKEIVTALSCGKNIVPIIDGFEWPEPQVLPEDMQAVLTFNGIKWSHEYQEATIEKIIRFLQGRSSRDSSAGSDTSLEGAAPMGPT
Experiment: FL-SARM1 cellular lysate assay (NAD/NADH-Glo detection of remaining NAD+, NMN-activated)

[1] = Activity (μM) (IC50), 11 point curve
[2] = read-out: Activity (IC50 class), 11 point curve
[3] = Activity (IC50 class), 11 point curve

| SMILES | IC50 [1] | IC50 [2] | IC50 [3] |
| --- | --- | --- | --- |
| Cc1cc(F)c(NC(=O)N2[C@@H]3C[C@@H](C)C[C@H]2C3)cc1-c1ccccn1 [Example 255, cis-N-(2-fluoro-4-methyl-5-pyridin-2-ylphenyl)-3-methyl-6-azabicyclo[3.1.1]heptane-6-carboxamide] | 0.02 µM | 0.0001 to 1 µM |  |
| Cc1cc(F)c(NC(=O)N2[C@@H]3C[C@@H](C)C[C@H]2C3)cc1-c1cccnn1 [Example 256, cis-N-(2-fluoro-4-methyl-5-pyridazin-3-ylphenyl)-3-methyl-6-azabicyclo[3.1.1]heptane-6-carboxamide] | 0.1 µM | 0.0001 to 1 µM |  |
| Cc1ccc(NC(=O)[C@H]2C[C@H]3C[C@H]3N2Cc2ncccn2)cc1-c1ncc(F)cn1 [Example 261] | 34 µM |  | > 10 µM |
| Cc1ccc(NC(=O)[C@H]2C[C@H]3C[C@H]3N2c2nccnn2)cc1-c1ncc(F)cn1 [Example 262, (1R,3R,5R)-N-(3-(5-fluoropyrimidin-2-yl)-4-methylphenyl)-2-(1,2,4-triazin-3-yl)-2-azabicyclo[3.1.0]hexane-3-carboxamide] | 2.5 µM |  | 1 to 10 µM |
| Cc1ccc(NC(=O)[C@H]2C[C@H]3C[C@H]3N2c2ncc(Cl)nn2)cc1-c1ncc(F)cn1 [Example 263, (1R,3R,5R)-2-(6-chloro-1,2,4-triazin-3-yl)-N-[3-(5-fluoropyrimidin-2-yl)-4-methylphenyl]-2-azabicyclo[3.1.0]hexane-3-carboxamide] | 1.8 µM |  | 1 to 10 µM |
| Cc1ccc(NC(=O)[C@H]2C[C@H]3C[C@H]3N2c2cnccn2)cc1-c1ncc(F)cn1 [Example 264, (1R,3R,5R)-N-[3-(5-fluoropyrimidin-2-yl)-4-methylphenyl]-2-pyrazin-2-yl-2-azabicyclo[3.1.0]hexane-3-carboxamide] | 1.1 µM |  | 1 to 10 µM |
| Cc1ccc(NC(=O)[C@H]2C[C@H]3C[C@H]3N2c2ccncn2)cc1-c1ncc(F)cn1 [Example 265, (1R,3R,5R)-N-[3-(5-fluoropyrimidin-2-yl)-4-methylphenyl]-2-pyrimidin-4-yl-2-azabicyclo[3.1.0]hexane-3-carboxamide] | 1.9 µM |  | 1 to 10 µM |
| Cc1ccc(NC(=O)[C@H]2C[C@H]3C[C@H]3N2c2ncccn2)cc1-c1ncccn1 [Example 266, (1R,3R,5R)-N-(4-methyl-3-pyrimidin-2-ylphenyl)-2-pyrimidin-2-yl-2-azabicyclo[3.1.0]hexane-3-carboxamide] | 4.2 µM |  | 1 to 10 µM |
| Cc1ccc(NC(=O)[C@H]2C[C@H]3C[C@H]3N2c2ncccn2)cc1-c1ncc(F)cn1 [Example 267, (1R,3R,5R)-N-[3-(5-fluoropyrimidin-2-yl)-4-methylphenyl]-2-pyrimidin-2-yl-2-azabicyclo[3.1.0]hexane-3-carboxamide] | 3.1 µM |  | 1 to 10 µM |
| Cc1ccc(NC(=O)[C@@H]2C[C@@H]3C[C@@H]3N2c2ncccn2)cc1-c1ncc(F)cn1 [Example 268, (1S,3S,5S)-N-[3-(5-fluoropyrimidin-2-yl)-4-methylphenyl]-2-pyrimidin-2-yl-2-azabicyclo[3.1.0]hexane-3-carboxamide] | 33 µM |  | > 10 µM |
| Cc1ccc(NC(=O)[C@H]2C[C@@H]3C[C@@H]3N2c2ncccn2)cc1-c1ncc(F)cn1 [Example 269, (1S,3R,5S)-N-[3-(5-fluoropyrimidin-2-yl)-4-methylphenyl]-2-pyrimidin-2-yl-2-azabicyclo[3.1.0]hexane-3-carboxamide] | 47 µM |  | > 10 µM |
| Cc1ccc(NC(=O)[C@H]2[C@H](C)OCCN2c2ccccn2)cc1-c1ncc(F)cn1 [Example 270, (2S,3R)-N-(3-(5-fluoropyrimidin-2-yl)-4-methylphenyl)-2-methyl-4-(pyridin-2-yl)morpholine-3-carboxamide] | 9.5 µM |  | 1 to 10 µM |
| Cc1ccc(NC(=O)C2C3CC(C3)N2c2ccccn2)cc1-c1ncc(F)cn1 (stereo not drawn) [Example 271, N-(3-(5-fluoropyrimidin-2-yl)-4-methylphenyl)-2-(pyridin-2-yl)-2-azabicyclo[2.1.1]hexane-3-carboxamide] | 17 µM |  | > 10 µM |
| Cc1ccc(NC(=O)[C@H]2CC[C@@H](C(F)(F)F)N2c2ccccn2)cc1-c1ncc(F)cn1 [Example 276, (2R,5S)-N-[3-(5-fluoropyrimidin-2-yl)-4-methylphenyl]-1-pyridin-2-yl-5-(trifluoromethyl) pyrrolidine-2-carboxamide] | 6.3 µM |  | 1 to 10 µM |
| Cc1ccc(NC(=O)[C@H]2[C@@H](C)CCN2c2ccccn2)cc1-c1ncc(F)cn1 [Example 277, (2R,3S)-N-[3-(5-fluoropyrimidin-2-yl)-4-methylphenyl]-3-methyl-1-pyridin-2-ylpyrrolidine-2-carboxamide] | 1.4 µM |  | 1 to 10 µM |
| Cc1ccc(NC(=O)[C@H]2CCCN2c2ccccn2)cc1-c1ncc(F)cn1 [Example 279, (2R)-N-[3-(5-fluoropyrimidin-2-yl)-4-methylphenyl]-1-pyridin-2-ylpyrrolidine-2-carboxamide] | 4.2 µM |  | 1 to 10 µM |
| Cc1ccc(NC(=O)[C@H]2CC[C@H](C)N2c2ccccn2)cc1-c1ncc(F)cn1 [Example 281, (2R,5S)-N-[3-(5-fluoropyrimidin-2-yl)-4-methylphenyl]-5-methyl-1-pyridin-2-ylpyrrolidine-2-carboxamide] | 1.3 µM |  | 1 to 10 µM |
| Cc1ccc(NC(=O)[C@H]2CC[C@@H](C)N2c2ccccn2)cc1-c1ncc(F)cn1 [Example 282, (2R,5R)-N-[3-(5-fluoropyrimidin-2-yl)-4-methylphenyl]-5-methyl-1-pyridin-2-ylpyrrolidine-2-carboxamide] | 1.2 µM |  | 1 to 10 µM |
| Cc1ccc(NC(=O)[C@H]2CC[C@@H](C)N2c2ccc(C#N)cn2)cc1-c1ncc(F)cn1 [Example 285, (2R,5R)-1-(5-cyanopyridin-2-yl)-N-[3-(5-fluoropyrimidin-2-yl)-4-methylphenyl]-5-methylpyrrolidine-2-carboxamide] | 2.2 µM |  | 1 to 10 µM |
| CC(=O)N1[C@H](C)CC[C@@H]1C(=O)Nc1ccc(C)c(-c2ncc(F)cn2)c1 [Example 286, (2R,5R)-1-acetyl-N-[3-(5-fluoropyrimidin-2-yl)-4-methylphenyl]-5-methylpyrrolidine-2-carboxamide] | 1.7 µM |  | 1 to 10 µM |
| Cc1ccc(NC(=O)[C@H]2CC[C@@H](C)N2c2ncccn2)cc1-c1ncc(F)cn1 [Example 287, (2R,5R)-N-[3-(5-fluoropyrimidin-2-yl)-4-methylphenyl]-5-methyl-1-pyrimidin-2-ylpyrrolidine-2-carboxamide] | 2.1 µM |  | 1 to 10 µM |
| Cc1ccc(NC(=O)[C@H]2C3CC(F)(F)C[C@H]32)cc1-c1cccnn1 (stereo partly drawn) [Example 288, cis-3,3-difluoro-N-(4-methyl-3-pyridazin-3-ylphenyl)bicyclo[3.1.0] hexane-6-carboxamide] | 15 µM |  | > 10 µM |
| Cc1ccc(NC(=O)[C@H]2[C@@H]3CC(F)(F)C[C@@H]32)cc1-c1cccnn1 [Example 289, trans-3,3-difluoro-N-(4-methyl-3-pyridazin-3-ylphenyl)bicyclo[3.1.0] hexane-6-carboxamide] | 26 µM |  | > 10 µM |
| Cc1ccc(NC(=O)[C@@H]2C[C@@H]2c2ccccn2)cc1-c1cccnn1 [Example 291, (1R,2S)-N-(4-methyl-3-pyridazin-3-ylphenyl)-2-pyridin-2-ylcyclopropane-1-carboxamide] | 16 µM |  | > 10 µM |
| Cc1ccc(NC(=O)[C@H]2CC[C@H]3C[C@H]3N2c2ncccn2)cc1-c1ncc(F)cn1 [Example 292, (1R,3R,6S)-N-[3-(5-fluoropyrimidin-2-yl)-4-methylphenyl]-2-pyrimidin-2-yl-2-azabicyclo[4.1.0]heptane-3-carboxamide] | 2 µM |  | 1 to 10 µM |
| Cc1ccc(NC(=O)[C@H]2C[C@@H](C(F)(F)F)CN2c2ncccn2)cc1-c1cccnn1 [Example 294, (2R,4R)-N-(4-methyl-3-pyridazin-3-ylphenyl)-1-pyrimidin-2-yl-4-(trifluoromethyl) pyrrolidine-2-carboxamide] | 9.4 µM |  | 1 to 10 µM |
| Cc1ccc(NC(=O)C2(C3CCC3)CC2)cc1-c1cccnn1 [Example 295, 1-cyclobutyl-N-(4-methyl-3-pyridazin-3-ylphenyl)cyclopropane-1-carboxamide] | 13 µM |  | > 10 µM |
| Cc1ccc(NC(=O)C(C)(C)C2CCC2)cc1-c1cccnn1 [Example 296, 2-cyclobutyl-2-methyl-N-(4-methyl-3-pyridazin-3-ylphenyl)propanamide] | 4.3 µM |  | 1 to 10 µM |
| Cc1ccc(NC(=O)[C@H]2C[C@H]2c2ccccc2)cc1-c1cccnn1 [Example 298, (1S,2R)-N-(4-methyl-3-pyridazin-3-ylphenyl)-2-phenylcyclopropane-1-carboxamide] | 0.6 µM | 0.0001 to 1 µM |  |
| Cc1ccc(NC(=O)[C@@H]2C[C@@H]2c2ccccc2)cc1-c1cccnn1 [Example 299, (1R,2S)-N-(4-methyl-3-pyridazin-3-ylphenyl)-2-phenylcyclopropane-1-carboxamide] | 14 µM |  | > 10 µM |
